Measured values: patent US6441023B1 (American Home Products Corporation, priority 1997, dated 2002)
Structures can show the parent of a compound that is named as a salt.

Legend:
[1] = molecular target: T1, MMP 13 (Homo sapiens, UniProt P45452); experiment: MMP 13 inhibition (HTS); type: biochemical; conditions: 0.2 μM
[2] = molecular target: T2, TACE (Homo sapiens, UniProt P78536); experiment: Procedure for measuring TACE inhibition; type: biochemical; conditions: for IC50: read-out: TACE IC 50
T2 construct: purchased Immunex
Procedure: Using 96-well black microtiter plates, each well receives a solution composed of 10 μL TACE (Inmunex, final concentration 1 μg/mL), 70 μL Tris buffer, pH 7.4 containing 10% glycerol (final concentration 10 mM), and 10 μL of test compound solution in DMSO ([…], DMSO concentration <1%) and incubated for 10 minutes at room temperature. The reaction is initiated by addition of a fluorescent peptidyl substrate (final concentration 100 μM to each well and then shaking on a shaker for 5 sec.
The reaction is read (excitation 340 nm, emission 420 nm) for 10 min. and the increase in fluorescence over time is plotted as a linear line. The slope of the line is calculated and represents the reaction rate.
The mean (xtsem) of the control rate is calculated and compared for statistical significance (p<0.05) with drug-treated rates using Dunnett's multiple comparison test.

[3] = molecular target: T3, MMP 1 (Homo sapiens, UniProt P03956); experiment: In vitro collagenase assay (human recombinant fibroblast collagenase); type: biochemical; conditions: for inhibition at 10 µM: read-out: MMP 1 % inhibition at 10 micromolar (*); for IC50: read-out: MMP 1 IC 50
T3 construct: human recombinant fibroblast collagenase (truncated, mw=18,828, WAR, Radnor)
T3 sequence (P03956 100-269 limits assumed): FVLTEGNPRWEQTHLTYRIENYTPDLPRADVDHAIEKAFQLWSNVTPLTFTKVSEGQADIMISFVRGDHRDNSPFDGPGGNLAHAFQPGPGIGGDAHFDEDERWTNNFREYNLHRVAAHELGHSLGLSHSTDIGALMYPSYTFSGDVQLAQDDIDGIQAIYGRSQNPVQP
Procedure: The assay is based on the cleavage of a peptide substrate ((Dnp-Pro-Cha-Gly-Cys(iNe)-His-Ala-Lys(NMa)-NH2), Peptide International, Inc.) by collag,enase releasing the fluorescent NMa group which is quantitated on the fluorometer. Dnp quenches the NiIa fluorescence in the intact substrate. […] Substrate is dissolved in methanol and stored frozen in 1 mM aliquots. Collagenase is stored frozen in buffer in 25 µM aliquots. For the assay, substrate is dissolved in HCBC buffer to a final concentration of 10 μM and collagenase to a final concentration of 5 nM. Compounds are dissolved in methanol, DMSO, or HCBC. The methanol and DMSO are diluted in HCBC to <1.0%. Compounds are added to the 96 well plate containing enzyme and the reaction is started by the addition of substrate.
The slope of the line is calculated and represents the reaction rate.
The mean (x±sem) of the control rate is calculated and compared for statistical significance (p<0.05) with drug-treated rates using Dunnett's multiple comparison test.

[4] = molecular target: T4, MMP 9 (Homo sapiens, UniProt P14780); experiment: In vitro gelatinase assay (human neutrophil gelatinase B); type: biochemical; conditions: read-out: MMP 9 IC 50
T4 construct: from tissue; host or cells: human neutrophils
Procedure: The assay is based on the cleavage of the thiopeptide substrate ((Ac-Pro-Leu-Gly(2 mercapto-4 methyl-pentanoyl)-Leu-Gly-OEt), Bachem Bioscience) by the enzyme, gelatinase, releasing the substrate product which reacts calorimetrically with DTNB ((5,5′-dithio-bis(2-nitro-benzoic acid)). The enzyme activity is measured by the rate of the color increase.
The thiopeptide substrate is made up fresh as a 20 mM stock in 100% DMSO and the DTNB is dissolved in 100% DMSO as a 100 mM stock and stored in dark at room temperature. Both the substrate and DTNB are diluted together to 1 mM with substrate buffer (50 mM HEPES pH 7.5, 5 mM CaCl2) before use. The stock of human neutrophil gelatinase B is diluted with assay buffer (50 mnM HEPES pH 7.5, 5 mM CaCl2, 0.02% Brij) to a final concentration of 0.15 mnM.
The increase in OD405 is plotted and the slope of the line is calculated which represents the reaction rate.

[5] = molecular target: T1, MMP 13; experiment: MMP 13 inhibition (manual); type: biochemical; conditions: read-out: MMP 13 IC 50

T2 sequence (P78536 215-824): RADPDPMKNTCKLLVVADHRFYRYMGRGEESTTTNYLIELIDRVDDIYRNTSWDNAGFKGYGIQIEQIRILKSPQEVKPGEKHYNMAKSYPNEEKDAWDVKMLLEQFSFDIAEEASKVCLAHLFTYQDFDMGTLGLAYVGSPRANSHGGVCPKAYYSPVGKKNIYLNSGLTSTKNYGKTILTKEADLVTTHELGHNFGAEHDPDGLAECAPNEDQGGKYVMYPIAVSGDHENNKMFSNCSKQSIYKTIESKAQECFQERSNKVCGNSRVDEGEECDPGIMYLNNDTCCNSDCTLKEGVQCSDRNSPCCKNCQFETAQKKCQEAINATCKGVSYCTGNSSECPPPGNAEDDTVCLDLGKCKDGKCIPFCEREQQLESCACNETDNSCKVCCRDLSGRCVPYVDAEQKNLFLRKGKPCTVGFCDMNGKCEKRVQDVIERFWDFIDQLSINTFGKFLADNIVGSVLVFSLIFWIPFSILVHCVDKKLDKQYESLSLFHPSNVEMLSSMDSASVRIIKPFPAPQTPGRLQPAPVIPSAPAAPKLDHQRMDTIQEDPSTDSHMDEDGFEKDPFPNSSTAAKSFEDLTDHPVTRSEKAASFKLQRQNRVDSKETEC
T4 sequence (P14780 94-707): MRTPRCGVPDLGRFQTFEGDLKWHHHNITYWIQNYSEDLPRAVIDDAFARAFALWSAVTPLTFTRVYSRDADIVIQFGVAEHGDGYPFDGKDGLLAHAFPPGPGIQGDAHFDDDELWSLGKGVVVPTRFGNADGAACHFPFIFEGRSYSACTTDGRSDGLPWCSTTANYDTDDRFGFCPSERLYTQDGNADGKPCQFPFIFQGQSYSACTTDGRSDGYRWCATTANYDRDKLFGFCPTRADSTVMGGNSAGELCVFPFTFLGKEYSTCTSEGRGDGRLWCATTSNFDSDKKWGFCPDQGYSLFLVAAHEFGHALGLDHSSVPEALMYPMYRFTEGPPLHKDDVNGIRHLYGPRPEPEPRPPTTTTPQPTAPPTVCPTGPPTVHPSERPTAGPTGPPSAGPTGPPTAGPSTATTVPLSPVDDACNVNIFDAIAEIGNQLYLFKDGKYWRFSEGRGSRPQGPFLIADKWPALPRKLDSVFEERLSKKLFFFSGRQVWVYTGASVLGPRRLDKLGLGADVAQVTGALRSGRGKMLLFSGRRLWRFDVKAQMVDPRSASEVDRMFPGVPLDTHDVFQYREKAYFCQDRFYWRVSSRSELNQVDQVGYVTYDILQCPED

In the case of “2-(4-Acetylamino-benzenesufanyl)-N-hydroxy-3-phenyl-propionarnide [Example 129]”, the “MMP 13 % inhibition at 0.2 μM (HTS)” value [1] is reported as 90%.

For `CCCCOc1ccc(S(=O)(=O)C2(C(=O)NO)CCN(Cc3cccc(OCCN4CCOCC4)c3)CC2)cc1` (as salt: HCl) [Example 243, 4(4-Butoxy-benzenesulfonyl)-1-[3-(2-morpholinyl-1-ylthoxy)-benzyl]-piperidine-4-carboxylic acid hydroxyamide], the melting point was 123 °C.

`CN1CCC(C(=O)NO)(S(=O)(=O)c2ccc(Oc3ccc(Cl)cc3)cc2)CC1` (as salt: HCl) [Example 249, 4-[4-(4-chloro-phenoxy)-benzenesulfonyl]1-methyl-piperidine-4-carboxylic acid hydroxyamide] showed a melting point of 52 °C.

Molecule `CCN1CCC(C(=O)NO)(S(=O)(=O)c2ccc(Oc3ccc(Cl)cc3)cc2)CC1` (as salt: HCl) [Example 250, 4-[4-(4-chloro-phenoxy)-benzenesulfonyl]1-ethyl-piperidine-4-carboxylic acid hydroxyamide] has a melting point of 158 °C.

In the case of `CCCCOc1ccc(S(=O)(=O)C2(C(=O)NO)CCN(Cc3cccc(OC)c3)CC2)cc1` (as salt: HCl) [Example 260, 4-(4-butoxy-benzenesulfonyl)-1-(3-methoxy-benzyl)-piperidine-4-carboxylic acid hydroxyamide], the melting point is reported as 137 °C.

With `COc1ccc(S(=O)(=O)C2(C(=O)NO)CCN(Cc3ccc(-c4ccccn4)cc3)CC2)cc1` (as salt: HCl) [Example 262, 4-(4-methoxy-benzenesulfonyl)-1-(4-pyridin-2-yl-benzyl)-piperidine-4-carboxylic acid hydroxyamide] the melting point was 214 °C.

For `CCCCOc1ccc(S(=O)(=O)C2(C(=O)NO)CCN(Cc3ccc(Cl)c(Cl)c3)CC2)cc1` (as salt: HCl) [Example 263, 1-(3,4-Dichlorobenzyl)-4-(4-butoxy-benzenesulfonyl)-piperidine-4-carboxylic acid hydroxyamide], the melting point was 256.8 °C.

`CN1CCC(C(=O)NO)(S(=O)(=O)c2ccc(OCc3ccc(Cl)cc3)cc2)CC1` (as salt: HCl) [Example 264, [4-(4-Chloro-benzyloxy)benzenesulfonyl]-1-methylpiperidine-4-carboxylic acid hydroxamide] gave a melting point of 117.8 °C.

Molecule `Cc1ccc(CN2CCC(C(=O)NO)(S(=O)(=O)c3ccc(OCc4ccc(Cl)cc4)cc3)CC2)cc1` (as salt: HCl) [Example 266, [4-(4-Chloro-benzyloxy)-benzenesulfonyl]-1-(4-methylbenzyl)-piperidine-4-carboxylic acid hydroxamide] has a melting point of 172 °C.

In the case of `CCCCOc1ccc(S(=O)(=O)C2(C(=O)NO)CCN(Cc3ccc(C)cc3)CC2)cc1` (as salt: HCl) [Example 267, 4-(4-Butoxy-benzenesulfonyl)-1-(4-methylbenzyl)-piperidine-4-carboxylic acid hydroxamide], the melting point is reported as 137 °C.

Work on `CCCCOc1ccc(S(=O)(=O)C2(C(=O)NO)CCN(Cc3ccc(C#N)cc3)CC2)cc1` (as salt: HCl) [Example 268, 4-(4-Butoxy-benzenesulfonyl)-1-(4-cyano-benzyl)-piperidine-4-hydroxamide carboxylic acid hydroxamide] yielded a melting point of 241.6 °C.

Work on `CCCCOc1ccc(S(=O)(=O)C2(C(=O)NO)CCN(Cc3ccncc3)CC2)cc1` (as salt: HCl) [Example 269, 4-(4-Butoxy-benzenesulfonyl)-1-pyridin-4-ylmethyl-piperidine-4-carboxylic acid hydroxamide] yielded a melting point of 118 °C.

Work on `CCCC(Cc1ccc(OCCN2CCOCC2)cc1)(C(=O)NO)S(=O)(=O)c1ccc(OC)cc1` (centres unmarked) [Example 35, 2-(4-Methoxy-benzenesulfonyl)-2-[4-(2-morpholin-4-yl-ethoxy)-benzyl]-pentanoic acid hydroxyamide] yielded an IC50 [2] of 44.9 nM and a melting point of 101 °C.

In the case of `COc1ccc(S(=O)(=O)C(Cc2cccnc2)(CC(C)C)C(=O)NO)cc1` (centres unmarked) [Example 66, 2-(4-Methoxy-benzenesulfonyl)-4-methyl-2-pyrdin-3-yh nethyl-pentoic acid hydroxyamide], the melting point is reported as 78 °C.

Molecule `CC#CCC(Cc1cccnc1)(C(=O)NO)S(=O)(=O)c1ccc(F)cc1` (centres unmarked) [Example 76, 2-(4-Fluoro-benzenesulfonyl)-2-pyridin-3-ylmethyl-hex4-ynoic acid hydroxyamide] has a melting point of 150 °C.

`CCCCCC#CCC(Cc1cccnc1)(C(=O)NO)S(=O)(=O)c1ccc(F)cc1` (centres unmarked) [Example 77, 2-(4-Fluoro-benzenesulfonyl)-2-pyridin-3-ylmethyl-decfynoic acid hydroxyamide] gave a melting point of 123 to 124 °C.

For `COc1ccc(S(=O)(=O)C2(C(=O)NO)CCN(Cc3ccccc3)CC2)cc1` [Example 83, 1-Benzyl-4-(4-methoxy-benzenesulfonyl)-piperidine-4carboxylic Acid hydroxyamide], the melting point was 90 to 95 °C.

In the case of `O=C(CCC(C(=O)NO)[S+]([O-])c1ccc(Br)cc1)NO` (centres unmarked) [Example 135, 4-Hydroxycarbamoyl-4-(4-bromo-benzenesulfinyl)-butyric acid hydfoxyamide], the “MMP 13 % inhibition at 0.2 μM (HTS)” value [1] is reported as 79%.

With `O=C(CCC(C(=O)NO)[S+]([O-])c1ccccc1C(F)(F)F)NO` (centres unmarked) [Example 138, 4-Hydroxycarbamoyl-4-(2-triuoromethyl-benzenesulfmyl)-butyric acid hydroxyamide] the “MMP 13 % inhibition at 0.2 μM (HTS)” value [1] was 20%.

For `O=C(CCC(C(=O)NO)S(=O)(=O)c1ccccc1C(F)(F)F)NO` (centres unmarked) [Example 139, 4-Hydroxycarbamoyl-4-(2-trifiuoromethyl-benzenesulfonyl)-butyric acid hydroxyamide], the “MMP 13 % inhibition at 0.2 μM (HTS)” value [1] was 8%.

In the case of `C[S+]([O-])c1ccc([S+]([O-])C(COCc2ccccc2)C(=O)NO)cc1` (centres unmarked) [Example 147, 3-Benzyloxy-N-hydroxy-2-(4-methanesulfinyl-benzenesulfmyl)-propionamide], the “MMP 13 % inhibition at 0.2 μM (HTS)” value [1] is reported as 73%.

`O=C(NO)C1(S(=O)(=O)c2ccc(OCc3ccccc3)cc2)CCN(Cc2ccccc2)CC1` [Example 241, 1-Benzyl-4-(4-benzyloxy-benzenesulfonyl)-piperidinefcarboxylic acid hydroxyamide] gave an inhibition at 10 µM [3] of 48.2%, an IC50 [2] of 277 nM and a melting point of 89 °C. The IC50 [4] was 2.7 nM.

With `CCCCOc1ccc(S(=O)(=O)C2(C(=O)NO)CCN(C)CC2)cc1` [Example 244, 1-Methyl-4-(4-butoxy-benzenesulfonyl)-piperidine-4-carboxylic acid hydroxyamide] the IC50 [3] was 3420 nM, the IC50 [5] was 1.5 nM and the IC50 [2] was 594 nM. The melting point was 118 °C and the IC50 [4] was 9.8 nM.

For `CCCCOc1ccc(S(=O)(=O)C2(C(=O)NO)CCN(CC)CC2)cc1` [Example 245, 1-Ethyl-4-(4-butoxy-benzenesulfonyl)-piperidine-4-carboxylic acid hydroxyamide], the IC50 [3] was 7060 nM, the IC50 [5] was 2.2 nM and the inhibition at 10 µM ([2]; read-out: TACE % inhibition at 10 micromolar (*)) was 52%. The melting point was 98 °C and the IC50 [4] was 43.4 nM.

Work on `CCCCOc1ccc(S(=O)(=O)C2(C(=O)NO)CCN(CCCC)CC2)cc1` [Example 246, 1-n-Butyl-4-(4-butoxy-benzenesulfonyl)-piperidine-4-carboxylic acid hydroxyamide] yielded an inhibition at 10 µM [3] of 50.3%, an IC50 [5] of 2.4 nM and an IC50 [2] of 880 nM. It also gave a melting point of 121 °C and an IC50 [4] of 28.3 nM.
